Data taken from patent publication US20110008465A1, “SESQUITERPENE FORMULATIONS, KITS AND METHODS OF USE THEREOF” (priority 2007, published 2011).
Counter-ions that a name gives are not always drawn.

Legend:
A-549 (lung cancer) = test: Chou and Talalay combination assay with beta-caryophyllene; type: cell-based, human; conditions: anticancer drug in combination with beta-caryophyllene; Chou and Talalay CI; 48 h
Procedure: (§1) Each solution was prepared fresh and use within 1 hour after preparation.
(§2) Cells were then harvested using trypsine-EDTA. Cells were counted using a hemocytometer and resuspended in DMEM+10% FBS medium.
(§3) Proliferation assay: Increasing concentrations of the anticancer agents and/or beta-caryophyllene were added to 96-well plate (100 μL per well). The final concentration of solvent in the culture medium was maintained below 0.5% (volume/volume) to avoid solvent toxicity.
(§4) The cells were incubated for 48 h at 37° C. and 5% CO2. Cytotoxicity was assessed using the resazurin reduction test (O'Brien et al., 2000). Fluorescence was measured on an automated 96-well Fluoroskan Ascent FI™ plate reader (Labsystems) using excitation and emission wavelengths of 530 nm and 590 nm, respectively. Resazurin was then removed.
(§5) Microplates were frozen at −20° C. overnight. Plates were thawed, a volume of 100 μl of 0.01% SDS in water was added to the wells, the plates were shaken at room temperature for 3 hours and then frozen once more at −20° C. overnight. […] Plates were shaken in the dark (at room temperature) for at least 2 hours, and fluorescence was measured on an automated 96-well Fluoroskan Ascent FI™ plate reader (Labsystems) using excitation and emission wavelengths of 360 nm and 460 nm, respectively.
(§6) Results were analyzed using the Chou and Talalay method (9) and may be interpreted as follow: Cl>1 represents an antagonist effect of beta-caryophyllene with the corresponding anticancer agent; Cl=1 represents an additive effect of beta-caryophyllene with the corresponding anticancer agent; Cl<1 represents a potentiating effect of beta-caryophyllene with the corresponding anticancer agent.

DLD-1 (colon cancer) = test: as above; type: cell-based, human; conditions: anticancer drug in combination with beta-caryophyllene; Chou and Talalay CI; 48 h
Procedure: as §1, §2, §3, §4, §5, §6

MCF-7 (breast cancer) = test: as above; type: cell-based, human; conditions: anticancer drug in combination with beta-caryophyllene; Chou and Talalay CI; 48 h
Procedure: as §1, §2, §3, §4, §5, §6

[1] = test system: MDA-MB-231 (breast cancer); test: as above; type: cell-based, human; conditions: anticancer drug in combination with beta-caryophyllene; Chou and Talalay CI; 48 h
Procedure: as §1, §2, §3, §4, §5, §6

PA-1 (ovary cancer) = test: as above; type: cell-based, human; conditions: anticancer drug in combination with beta-caryophyllene; Chou and Talalay CI; 48 h
Procedure: as §1, §2, §3, §4, §5, §6

PC-3 (prostate cancer) = test: as above; type: cell-based, human; conditions: anticancer drug in combination with beta-caryophyllene; Chou and Talalay CI; 48 h
Procedure: as §1, §2, §3, §4, §5

B16 (murine melanoma) = test: as above; type: cell-based; conditions: anticancer drug in combination with beta-caryophyllene; Chou and Talalay CI; 48 h
Procedure: as §1, §2, §3, §4, §5, §6

[2] = test system: GL-261 (murine glioblastoma); test: as above; type: cell-based; conditions: anticancer drug in combination with beta-caryophyllene; Chou and Talalay CI; 48 h
Procedure: as §1, §2, §3, §4, §5, §6

MEL-2 (human melanoma) = test: as above; type: cell-based; conditions: anticancer drug in combination with beta-caryophyllene; Chou and Talalay CI; 48 h
Procedure: as §1, §2, §3, §4, §5, §6

[3] = test system: U-251 (human glioblastoma); test: as above; type: cell-based; conditions: anticancer drug in combination with beta-caryophyllene; Chou and Talalay CI; 48 h
Procedure: as §1, §2, §3, §4, §5, §6

tumor cell lines = test: Comparative potentiating effect of beta-caryophyllene and Tesmilifene (DPPE) combined with 5 antitumor classes; type: cell-based
Procedure: as §1, §2, §3, §4, §5, §6

N.N.[Cl][Pt][Cl] [Cisplatine, Cisplatin]
Potentiating activity A-549 (A-549 (lung cancer)): (2) (High: CI below 0.5 at IC50)
Potentiating activity DLD-1 (DLD-1 (colon cancer)): (1) (Very High: CI equal or below 1 at IC20 and Cl below 0.6 to IC50)
Potentiating activity MCF-7 (MCF-7 (breast cancer)): (2) (High: CI below 0.5 at IC50)
Potentiating activity MDA [1]: (3) (Moderate: 0.5 < CI < 0.8 at IC50)
Potentiating activity PA-1 (PA-1 (ovary cancer)): (2) (High: CI < 0.5 to IC50)
Potentiating activity PC-3 (PC-3 (prostate cancer)): (6) (Antagonist effect: CI > 1)
Potentiating activity B16 (B16 (murine melanoma)): (1) (Very High: potentiating or additive activity to IC20 and CI < 0.6 to IC50)
Potentiating activity GL-261 [2]: (6) (Antagonist effect: CI > 1)
Potentiating activity MEL-2 (MEL-2 (human melanoma)): (1) (Very High: potentiating or additive activity to IC20 and CI < 0.6 to IC50)
Potentiating activity U-251 [3]: (6) (Antagonist effect: CI > 1)

CCN(CC)CCOc1ccc(Cc2ccccc2)cc1 [DPPE, Tesmilifene]
Alkylating agents % (tumor cell lines; class (1) Very High): 25%
Alkylating agents Total (60) (tumor cell lines; class (1) Very High): 15
Antimitotic agents % (tumor cell lines; class (1) Very High): 25%
Antimitotic agents Total (40) (tumor cell lines; class (1) Very High): 10
RNA/DNA antimetabolites % (tumor cell lines; class (1) Very High): 30%
RNA/DNA antimetabolites Total (20) (tumor cell lines; class (1) Very High): 6
Topoisomerase II inhibitors % (tumor cell lines; class (1) Very High): 18%
Topoisomerase II inhibitors Total (40) (tumor cell lines; class (1) Very High): 7
kinase inhibitors % (tumor cell lines; class (1) Very High): 30%
kinase inhibitors Total (20) (tumor cell lines; class (1) Very High): 6
Alkylating agents % (tumor cell lines; class (2) High): 20%
Alkylating agents Total (60) (tumor cell lines; class (2) High): 12
Antimitotic agents % (tumor cell lines; class (2) High): 20%
Antimitotic agents Total (40) (tumor cell lines; class (2) High): 8
RNA/DNA antimetabolites % (tumor cell lines; class (2) High): 15%
RNA/DNA antimetabolites Total (20) (tumor cell lines; class (2) High): 3
Topoisomerase II inhibitors % (tumor cell lines; class (2) High): 13%
Topoisomerase II inhibitors Total (40) (tumor cell lines; class (2) High): 5
kinase inhibitors % (tumor cell lines; class (2) High): 25%
kinase inhibitors Total (20) (tumor cell lines; class (2) High): 5
Alkylating agents % (tumor cell lines; class (3) Moderate): 23%
Alkylating agents Total (60) (tumor cell lines; class (3) Moderate): 14
Antimitotic agents % (tumor cell lines; class (3) Moderate): 30%
Antimitotic agents Total (40) (tumor cell lines; class (3) Moderate): 12
RNA/DNA antimetabolites % (tumor cell lines; class (3) Moderate): 15%
RNA/DNA antimetabolites Total (20) (tumor cell lines; class (3) Moderate): 3
Topoisomerase II inhibitors % (tumor cell lines; class (3) Moderate): 30%
Topoisomerase II inhibitors Total (40) (tumor cell lines; class (3) Moderate): 12
kinase inhibitors % (tumor cell lines; class (3) Moderate): 45%
kinase inhibitors Total (20) (tumor cell lines; class (3) Moderate): 9
Alkylating agents % (tumor cell lines; class (4) Weak): 10%
Alkylating agents Total (60) (tumor cell lines; class (4) Weak): 6
Antimitotic agents % (tumor cell lines; class (4) Weak): 15%
Antimitotic agents Total (40) (tumor cell lines; class (4) Weak): 6
RNA/DNA antimetabolites % (tumor cell lines; class (4) Weak): 10%
RNA/DNA antimetabolites Total (20) (tumor cell lines; class (4) Weak): 2
Topoisomerase II inhibitors % (tumor cell lines; class (4) Weak): 10%
Topoisomerase II inhibitors Total (40) (tumor cell lines; class (4) Weak): 4
kinase inhibitors % (tumor cell lines; class (4) Weak): 0%
kinase inhibitors Total (20) (tumor cell lines; class (4) Weak): 0
Alkylating agents % (tumor cell lines; class (5) Additive effect): 5%
Alkylating agents Total (60) (tumor cell lines; class (5) Additive effect): 3
Antimitotic agents % (tumor cell lines; class (5) Additive effect): 0%
Antimitotic agents Total (40) (tumor cell lines; class (5) Additive effect): 0
RNA/DNA antimetabolites % (tumor cell lines; class (5) Additive effect): 0%
RNA/DNA antimetabolites Total (20) (tumor cell lines; class (5) Additive effect): 0
Topoisomerase II inhibitors % (tumor cell lines; class (5) Additive effect): 5%
Topoisomerase II inhibitors Total (40) (tumor cell lines; class (5) Additive effect): 2
kinase inhibitors % (tumor cell lines; class (5) Additive effect): 0%
kinase inhibitors Total (20) (tumor cell lines; class (5) Additive effect): 0
Alkylating agents % (tumor cell lines; class (6) Antagonist effect): 17%
Alkylating agents Total (60) (tumor cell lines; class (6) Antagonist effect): 10
Antimitotic agents % (tumor cell lines; class (6) Antagonist effect): 10%
Antimitotic agents Total (40) (tumor cell lines; class (6) Antagonist effect): 4
RNA/DNA antimetabolites % (tumor cell lines; class (6) Antagonist effect): 30%
RNA/DNA antimetabolites Total (20) (tumor cell lines; class (6) Antagonist effect): 6
Topoisomerase II inhibitors % (tumor cell lines; class (6) Antagonist effect): 25%
Topoisomerase II inhibitors Total (40) (tumor cell lines; class (6) Antagonist effect): 10
kinase inhibitors % (tumor cell lines; class (6) Antagonist effect): 0%
kinase inhibitors Total (20) (tumor cell lines; class (6) Antagonist effect): 0
drugs exhibiting a potentiating effect when combined (tumor cell lines; drugs tested at their IC50 values): 81%

CN(C)/N=N/c1[nH]cnc1C(N)=O [Dacarbazine, dacarbazine]
Potentiating activity A-549 (A-549 (lung cancer)): (2) (High: CI below 0.5 at IC50)
Potentiating activity DLD-1 (DLD-1 (colon cancer)): (3) (Moderate: 0.5 < CI < 0.8 at IC50)
Potentiating activity MCF-7 (MCF-7 (breast cancer)): (1) (Very High: CI equal or below 1 at IC20 and Cl below 0.6 to IC50)
Potentiating activity MDA [1]: (1) (Very High: CI equal or below 1 at IC20 and Cl below 0.6 to IC50)
Potentiating activity PA-1 (PA-1 (ovary cancer)): (1) (Very High: potentiating or additive activity to IC20 and CI < 0.6 to IC50)
Potentiating activity PC-3 (PC-3 (prostate cancer)): (4) (Weak: 0.8 < CI < 1 to IC50)
Potentiating activity B16 (B16 (murine melanoma)): (1) (Very High: potentiating or additive activity to IC20 and CI < 0.6 to IC50)
Potentiating activity GL-261 [2]: (2) (High: CI < 0.5 to IC50)
Potentiating activity MEL-2 (MEL-2 (human melanoma)): (1) (Very High: potentiating or additive activity to IC20 and CI < 0.6 to IC50)
Potentiating activity U-251 [3]: (1) (Very High: potentiating or additive activity to IC20 and CI < 0.6 to IC50)

COc1cccc2c1C(=O)c1c(O)c3c(c(O)c1C2=O)C[C@@](O)(C(=O)CO)C[C@@H]3O[C@H]1C[C@H](N)[C@H](O)[C@H](C)O1 [Doxorubicin, doxorubicin hydrochloride]
Potentiating activity A-549 (A-549 (lung cancer)): (2) (High: CI below 0.5 at IC50)
Potentiating activity DLD-1 (DLD-1 (colon cancer)): (4) (Weak: 0.8 < CI < 1 at IC50)
Potentiating activity MCF-7 (MCF-7 (breast cancer)): (1) (Very High: CI equal or below 1 at IC20 and Cl below 0.6 to IC50)
Potentiating activity MDA [1]: (3) (Moderate: 0.5 < CI < 0.8 at IC50)
Potentiating activity PA-1 (PA-1 (ovary cancer)): (1) (Very High: potentiating or additive activity to IC20 and CI < 0.6 to IC50)
Potentiating activity PC-3 (PC-3 (prostate cancer)): (4) (Weak: 0.8 < CI < 1 to IC50)
Potentiating activity B16 (B16 (murine melanoma)): (1) (Very High: potentiating or additive activity to IC20 and CI < 0.6 to IC50)
Potentiating activity GL-261 [2]: (3) (Moderate: 0.5 < CI < 0.8 to IC50)
Potentiating activity MEL-2 (MEL-2 (human melanoma)): (1) (Very High: potentiating or additive activity to IC20 and CI < 0.6 to IC50)
Potentiating activity U-251 [3]: (1) (Very High: potentiating or additive activity to IC20 and CI < 0.6 to IC50)
